Assay results reported in patent publication JP2005314435A, “循環器疾患治療剤および健康食品” (Individual, priority 2000, dated 2002).

What was measured:
Format in all cases: in vivo
[1] = system: spontaneously stroke-developing rat [自然発症脳卒中ラット(SHR-SP)]; experiment: Example 2: blood pressure lowering, body weight and mortality in stroke-prone rats (1% saline drinking water); conditions: for blood pressure (systolic) / body weight: 1.8% in feed
[2] = system: spontaneously stroke-developing rat [自然発症脳卒中ラット (SHR−SP)]; experiment: Example 3: blood pressure lowering and body weight in SHR-SP given 0.003% L-NAME drinking water
[3] = system: SHR-SP rat, neurological symptoms [SHR−SPに対する神経症状]; experiment: Example 3: delay of neurological symptom onset, life prolongation and brain microvessel protection in SHR-SP given 0.003% L-NAME
[4] = system: SHR-SP rat, neurological symptoms [SHR−SPに対する神経症状]; experiment: Example 2: delay of neurological symptom onset and life prolongation in SHR-SP (1% saline drinking water); conditions: for mean number of days from onset to death / mean number of days to death / mean number of days to onset of neurological symptoms: 1.8% in feed
[5] = system: spontaneously hypertensive rat [自然発症高血圧ラット(SHR)]; experiment: Example 1: blood pressure lowering and body weight in spontaneously hypertensive rats (1% saline drinking water)
[6] = system: WKY rat (Wistar-Kyoto rat) [WKYラット(Wistar-Kyoto rat)]; experiment: Example 1: blood pressure and body weight in normotensive WKY rats (1% saline drinking water)
[7] = FA-Arg 1.8% in feed, pre-value (week 0)
[8] = FA-Arg 1.8% in feed, 8-week observation
[9] = FA-Arg 1.8% in feed, n = 7, 8-week observation
[10] = n = 7, listed as FA−Arg塩, L−アルギニン塩
[11] = FA 2.7% in feed, pre-value (week 0)
[12] = FA 1.8% in feed until week 6, then normal feed, week 9
[13] = FA 1.8% in feed until week 6, then normal feed, week 12
[14] = FA 1.8% in feed, pre-value (week 0)
[15] = FA 2.7% in feed until week 6, then normal feed, week 9
[16] = FA 2.7% in feed until week 6, then normal feed, week 12
[17] = WKY, FA 2.7% in feed until week 6, then normal feed, week 9
[18] = WKY, FA 2.7% in feed until week 6, then normal feed, week 12
[19] = WKY, FA 2.7% in feed, pre-value (week 0)
[20] = FA 2.7% in feed, 8-week observation
[21] = FA 2.7% in feed, n = 6, 8-week observation

Q: COc1cc(C=CC(=O)O)ccc1O [FA−Arg, フェルラ酸−L−アルギニン塩] was tested. Which “blood pressure (systolic)” value ([1]; pre-value (week 0), L−アルギニン塩) did it give?
A: 122.8 ±4.6 mmHg

Q: What about the body weight ([1]; pre-value (week 0), L−アルギニン塩) of the same compound?
A: 103.2 ± 3.2 g

Q: And the “blood pressure (systolic)” value ([1]; week 2, L−アルギニン塩)?
A: 155.2 ±4.6 mmHg

Q: And the body weight ([1]; week 2, L−アルギニン塩)?
A: 156.7 ± 3.8 g

Q: And the “blood pressure (systolic)” value ([1]; week 4, L−アルギニン塩)?
A: 196.1 ± 5.8 mmHg

Q: And the body weight ([1]; week 4, L−アルギニン塩)?
A: 204.4 ± 4.5 g

Q: And the body weight ([1]; week 7, L−アルギニン塩)?
A: 226.4 ± 10.9 g

Q: What about the deaths ([2]; FA-Arg 1.8% in feed, at week 7) of the same compound?
A: 1 cases

Q: And the deaths ([2]; FA-Arg 1.8% in feed, at week 8)?
A: 1 cases

Q: And the “blood pressure (systolic)” value [2, 7]?
A: 116.0 ±4.3 mmHg

Q: And the body weight [2, 7]?
A: 102.7 ± 2.9 g

Q: What about the “blood pressure (systolic)” value ([2]; FA-Arg 1.8% in feed, week 2) of the same compound?
A: 146.4 ±5.0 mmHg

Q: What about the body weight ([2]; FA-Arg 1.8% in feed, week 2) of the same compound?
A: 179.9 ± 4.0 g

Q: What about the “blood pressure (systolic)” value ([2]; FA-Arg 1.8% in feed, week 4) of the same compound?
A: 183.6± 5.7 mmHg

Q: And the body weight ([2]; FA-Arg 1.8% in feed, week 4)?
A: 225.7 ± 3.0 g

Q: And the “blood pressure (systolic)” value ([2]; FA-Arg 1.8% in feed, week 6)?
A: 205.7±7.7 mmHg

Q: What about the body weight ([2]; FA-Arg 1.8% in feed, week 6) of the same compound?
A: 244.3 ± 4.2 g

Q: And the “blood pressure (systolic)” value ([2]; FA-Arg 1.8% in feed, week 8)?
A: 221.8± 7.1 mmHg

Q: And the body weight ([2]; FA-Arg 1.8% in feed, week 8)?
A: 263.6 ± 6.9 g

Q: What about the “animals that died / animals used” value [3, 8] of the same compound?
A: 2/7

Q: And the “animals with onset of neurological symptoms / animals used” value [3, 8]?
A: 2/7

Q: What about the “mean number of days to death” value [3, 9] of the same compound?
A: 55.0 ± 1.0 days

Q: And the “mean number of days to onset of neurological symptoms” value [3, 9]?
A: 54.9 ± 1.1 days

Q: What about the “mean number of days from onset to death” value [4, 10] of the same compound?
A: 8.2 ± 2.2 days

Q: And the “mean number of days to death” value [4, 10]?
A: 73.9 ± 4.7 days

Q: What about the “mean number of days to onset of neurological symptoms” value [4, 10] of the same compound?
A: 65.4 ± 4.8 days

Q: How did the “blood pressure (systolic)” value ([1]; pre-value (week 0)) turn out when COc1cc(C=CC(=O)O)ccc1O [FA, フェルラ酸] was run?
A: 124.5 ±5.5 mmHg

Q: And the body weight ([1]; pre-value (week 0))?
A: 94.0 ± 2.3 g

Q: What about the “blood pressure (systolic)” value ([1]; week 2) of the same compound?
A: 150.2 ±6.1 mmHg

Q: What about the body weight ([1]; week 2) of the same compound?
A: 148.8 ± 3.3 g

Q: And the “blood pressure (systolic)” value ([1]; week 4)?
A: 203.4 ±4.6 mmHg

Q: And the body weight ([1]; week 4)?
A: 198.2 ± 3.1 g

Q: And the body weight ([1]; week 7)?
A: 233.0 ± 3.8 g

Q: What about the “blood pressure lowering effect (in words)” value ([1]; from week 2 on, versus control without test substance) of the same compound?
A: 有意な降圧効果が観察された

Q: And the “blood pressure (systolic)” value [2, 11]?
A: 115.0 ±4.7 mmHg

Q: What about the body weight [2, 11] of the same compound?
A: 107.7 ± 1.9 g

Q: And the “blood pressure (systolic)” value ([2]; FA 2.7% in feed, week 2)?
A: 141.4 ±3.1 mmHg

Q: And the body weight ([2]; FA 2.7% in feed, week 2)?
A: 137.6 ± 3.0 g

Q: What about the “blood pressure (systolic)” value ([2]; FA 2.7% in feed, week 4) of the same compound?
A: 185.1± 1.9 mmHg

Q: What about the body weight ([2]; FA 2.7% in feed, week 4) of the same compound?
A: 175.9 ± 3.2 g

Q: And the “blood pressure (systolic)” value ([2]; FA 2.7% in feed, week 6)?
A: 203.1±7.5 mmHg

Q: What about the body weight ([2]; FA 2.7% in feed, week 6) of the same compound?
A: 195.1 ± 5.0 g

Q: And the “blood pressure (systolic)” value ([2]; FA 2.7% in feed, week 8)?
A: 207.8± 6.0 mmHg

Q: What about the body weight ([2]; FA 2.7% in feed, week 8) of the same compound?
A: 213.5 ± 7.4 g

Q: And the deaths ([5]; FA 1.8% group, at week 9-10 (after change to normal feed at week 6))?
A: 1 cases

Q: And the “blood pressure (systolic)” value [5, 12]?
A: 225.6 ±6.1 mmHg

Q: And the body weight [5, 12]?
A: 293.8 ± 5.0 g

Q: And the “blood pressure (systolic)” value [5, 13]?
A: 233.6 ± 6.0 mmHg

Q: And the body weight [5, 13]?
A: 307.0 ± 6.7 g

Q: What about the “blood pressure (systolic)” value [5, 14] of the same compound?
A: 128.5 ±2.2 mmHg

Q: And the body weight [5, 14]?
A: 135.5 ± 1.8 g

Q: And the “blood pressure (systolic)” value ([5]; FA 1.8% in feed, week 6)?
A: 201.1 ±6.2 mmHg

Q: What about the body weight ([5]; FA 1.8% in feed, week 6) of the same compound?
A: 264.8 ± 4.1 g

Q: And the “blood pressure (systolic)” value [5, 15]?
A: 211.8 ±3.1 mmHg

Q: What about the body weight [5, 15] of the same compound?
A: 292.1 ± 3.0 g

Q: And the “blood pressure (systolic)” value [5, 16]?
A: 217.7 ± 4.7 mmHg

Q: What about the body weight [5, 16] of the same compound?
A: 309.4 ± 3.1 g

Q: And the “blood pressure (systolic)” value [5, 11]?
A: 135.4 ±2.7 mmHg

Q: What about the body weight [5, 11] of the same compound?
A: 136.8 ± 1.5 g

Q: What about the “blood pressure (systolic)” value ([5]; FA 2.7% in feed, week 6) of the same compound?
A: 192.0 ±2.5 mmHg

Q: What about the body weight ([5]; FA 2.7% in feed, week 6) of the same compound?
A: 239.5 ± 3.4 g

Q: And the “suppression of body weight (in words)” value ([5]; FA groups)?
A: 体重の有意な抑制がみられた

Q: And the “blood pressure lowering effect (in words)” value ([5]; during 6 weeks of administration)?
A: 用量依存的に有意な降圧作用を示した

Q: What about the “blood pressure (systolic)” value [6, 17] of the same compound?
A: 124.0 ±3.7 mmHg

Q: What about the body weight [6, 17] of the same compound?
A: 310.1 ± 7.3 g

Q: And the “blood pressure (systolic)” value [6, 18]?
A: 135.5 ± 2.8 mmHg

Q: What about the body weight [6, 18] of the same compound?
A: 349.2 ± 12.0 g

Q: And the “blood pressure (systolic)” value [6, 19]?
A: 99.5 ±3.1 mmHg

Q: What about the body weight [6, 19] of the same compound?
A: 122.2 ± 2.8 g

Q: And the “blood pressure (systolic)” value ([6]; WKY, FA 2.7% in feed, week 6)?
A: 128.4 ±4.7 mmHg

Q: And the body weight ([6]; WKY, FA 2.7% in feed, week 6)?
A: 263.2 ± 4.3 g

Q: What about the “suppression of body weight (in words)” value ([6]; WKY, FA group) of the same compound?
A: 体重の有意な抑制がみられた

Q: What about the “blood pressure lowering effect (in words)” value ([6]; normotensive WKY rats) of the same compound?
A: 降圧作用を示さず

Q: And the “preventive effect (in words)” value ([3]; 8-week observation, versus control)?
A: 明らかな予防効果が見られた

Q: What about the “animals that died / animals used” value [3, 20] of the same compound?
A: 0/6

Q: And the “animals with onset of neurological symptoms / animals used” value [3, 20]?
A: 0/6

Q: What about the “mean number of days to death” value [3, 21] of the same compound?
A: 56.0 ± 0.0 days

Q: And the “mean number of days to onset of neurological symptoms” value [3, 21]?
A: 56.0 ± 0.0 days

Q: And the “mean number of days to onset of neurological symptoms or death (in words)” value ([3]; from start of administration, versus control)?
A: 有意に延長していた

Q: What about the “protection of brain microvessels (in words)” value ([3]; order FA group, FA-Arg salt group) of the same compound?
A: FA投与群、FA−Arg塩投与群の順で脳内微細血管が保護されたことが示唆された

Q: What about the “mean number of days from onset to death” value ([4]; n = 7) of the same compound?
A: 10.4 ± 0.6 days

Q: What about the “mean number of days to death” value ([4]; n = 7) of the same compound?
A: 70.0 ± 1.8 days

Q: What about the “mean number of days to onset of neurological symptoms” value ([4]; n = 7) of the same compound?
A: 59.6 ± 1.4 days

Q: What about the “delay of neurological symptom onset and life prolongation (in words)” value ([4]; versus control without test substance) of the same compound?
A: 明らかな神経症状発症遅延効果および延命効果を示している
